Test results published in patent publication US11944624B2, “Peptide and small molecule agonists of EphA and their uses” (CASE WESTERN RESERVE UNIVERSITY, priority 2017, dated 2024).

Key:
ERK and Akt activities = ERK and Akt activities in LK133A-A2 cells (EphA2 restored); type: cell-based, mice
Description: (§1) Cells were plated in 24-well dishes at a density of 100,000 cells/well and grown for 24 hours prior to stimulation with appropriate compounds and ephrins for the given amounts of time. Compounds were prepared in DMSO at 500 times the final concentrations and 0.2% DMSO was used as vehicle control. Following treatment, cells were lysed directly in SDS Gel Loading Buffer and immunoblotted as described previously. Immunoprecipitation and immunofluorescence staining was performed as described. For immunoprecipitation, 300,000 cells/well were plated in 6-well dishes and lysed in modified RIPA Buffer (20 mM Tris-HCl pH 7.4, 20 mM NaF, 150 mM NaCl, 10% glycerol, 0.1% SDS, 0.5% DCA, 2 mM EDTA, 1% Triton X-100) following treatment. Either 10 μg of ephrin-A1-Fc, or […] of EphA2 mouse monoclonal antibody (Clone D7, Millipore) were used, and mouse IgG was used as a negative control for EphA2 IP.
To address this question, we utilized an immortalized liver epithelial cell line, LK133A, isolated from a hepatoma induced by DEN in EphA2 knockout mice. Retroviral vector was used to restore EphA2 expression in these cells (LK133A-A2), and cells transduced with an empty vector were used as control (LK133AVec).

PC-3 cells = experiment: Cell rounding of PC-3 cells; type: cell-based, human; design: dose or concentration left out as unconfirmed
Source text: As we first reported in 2000, EphA2 activation on PC-3 cells by ephrin-A1 induced rapid cell rounding, a phenomenon that is correlated with inhibition of integrin function.

ERK1/2 and Akt = experiment: Inhibition of ERK1/2 and Akt activation in A172-A2 cells; type: cell-based; conditions: 50 μM and 100 μM
Description: as §1
(§2) Activation of EphA2 receptor by ephrin-A1 ligand inhibits both ERK1/2 and Akt kinase activities in most normal cells and a subset of cancer cells. […] We first tested this by utilizing the A172 glioma cells engineered to overexpress EphA2 receptor (A172-A2).

[1] = tested on: DU145 and PC-3 cell xenografts; conditions: previously shown, independent of α1-adrenoreceptor; cited from earlier work
EphA1 = molecular target: T1, EphA1 (Homo sapiens, UniProt P21709); experiment: EphA1 activation in HEK 293 cells overexpressing EphA1; type: cell-based; conditions: HEK 293 overexpressing EphA1, same concentrations
T1 construct: expressed in transfected cells; host or cells: HEK 293
T1 sequence (P21709 26-976): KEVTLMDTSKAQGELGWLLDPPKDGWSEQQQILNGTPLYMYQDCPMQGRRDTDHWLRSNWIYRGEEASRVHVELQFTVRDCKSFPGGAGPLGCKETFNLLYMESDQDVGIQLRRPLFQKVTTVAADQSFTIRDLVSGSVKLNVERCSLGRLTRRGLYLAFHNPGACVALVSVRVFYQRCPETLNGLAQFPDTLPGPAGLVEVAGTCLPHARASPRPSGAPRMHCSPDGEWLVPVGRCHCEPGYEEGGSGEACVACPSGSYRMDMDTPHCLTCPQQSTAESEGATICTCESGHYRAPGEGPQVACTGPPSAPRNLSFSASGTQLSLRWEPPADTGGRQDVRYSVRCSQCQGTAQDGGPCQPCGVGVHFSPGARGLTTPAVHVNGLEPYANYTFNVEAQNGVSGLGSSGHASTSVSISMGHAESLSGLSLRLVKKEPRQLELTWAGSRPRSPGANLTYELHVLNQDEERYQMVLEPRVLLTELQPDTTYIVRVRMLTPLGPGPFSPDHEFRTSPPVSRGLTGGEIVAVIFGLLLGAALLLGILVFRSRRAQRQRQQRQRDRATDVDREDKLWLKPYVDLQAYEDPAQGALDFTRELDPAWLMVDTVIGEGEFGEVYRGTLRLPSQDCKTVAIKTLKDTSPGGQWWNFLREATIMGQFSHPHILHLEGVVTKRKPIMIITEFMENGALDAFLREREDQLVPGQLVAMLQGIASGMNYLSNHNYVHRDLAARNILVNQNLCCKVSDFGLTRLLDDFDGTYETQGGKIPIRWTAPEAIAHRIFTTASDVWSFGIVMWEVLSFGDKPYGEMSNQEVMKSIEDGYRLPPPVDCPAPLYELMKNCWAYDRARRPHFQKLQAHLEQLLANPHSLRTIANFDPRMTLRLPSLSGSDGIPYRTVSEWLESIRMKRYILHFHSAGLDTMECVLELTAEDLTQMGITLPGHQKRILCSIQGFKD
Description: Cells were plated in 24-well dishes at a density of 100,000 cells/well and grown for 24 hours prior to stimulation with appropriate compounds and ephrins for the given amounts of time. Compounds were prepared in DMSO at 500 times the final concentrations and 0.2% DMSO was used as vehicle control. Following treatment, cells were lysed directly in SDS Gel Loading Buffer and immunoblotted as described previously. […] For immunoprecipitation, 300,000 cells/well were plated in 6-well dishes and lysed in modified RIPA Buffer (20 mM Tris-HCl pH 7.4, 20 mM NaF, 150 mM NaCl, 10% glycerol, 0.1% SDS, 0.5% DCA, 2 mM EDTA, 1% Triton X-100) following treatment. Either 10 μg of ephrin-A1-Fc, or 4 mg of EphA2 mouse monoclonal antibody (Clone D7, Millipore) were used, and mouse IgG was used as a negative control for EphA2 IP. […] For this purpose, HEK 293 cell lines overexpressing EphA1, EphA2, EphA3, EphA4, and EphB3 kinases were utilized.

EphA2 [2] = molecular target: T2, EphA2 (Homo sapiens, UniProt P29317); experiment: EphA2 internalization in MDA-MB-231 cells (immunofluorescence, Example 2); type: cell-based; design: expressed in transfected cells; host or cells: MDA-MB-231 (MDA-231-A2 / MDA-MB-231-A2), puromycin selected; conditions: 60 min, Doxazosin 50 μM
Description: This was performed using the MDA-MB-231 cell line. This cell line spreads well in culture, thereby facilitating immunofluorescence detection of cell surface and intracellular EphA2 (FIG. 28). […] MDA-MB-231 cells were plated in 24-well plates on 10 mm square coverslips coated with 10 μg/ml fibronectin and incubated 24-48 hrs before treatment with 50 μM Doxazosin and various doses of compound 27 (0.4, 2, 10, 50 μM) in 0.5% DMSO for 1 hr. As another positive control, cells were treated with 2 μg/ml ephrin-A1-Fc. Cells were then washed with PBS and fixed with 4% paraformaldehyde (Electron Microscopy Sciences, Hatfield, PA) on ice for 10 min, followed by washing and permeabilization with 0.4% NP-40 for 10 min on ice. […] Cells were then incubated in primary mouse EphA2 antibody (D7, 1:100) in 0.1% BSA/PBS for 1 hr at room temperature, washed in PBS and BSA/PBS, followed by incubation in secondary donkey anti-mouse Alexa Fluor 488 antibody (1:300) in BSA/PBS for 30 min at room temperature. Cells were washed in PBS and BSA/PBS, followed by mounting in DAPI Mounting Medium (Electron Microscopy Sciences). Images were taken with a Leica microscope.

EphA2 [3] = molecular target: T2, EphA2; experiment: EphA2 activation in A172-A2 glioma cells; type: cell-based; design: expressed in transfected cells
Description: as §1, §2

[4] = tested on: MDA-MB-231, A172-A2 and PC3-DAB2IP KD cells; experiment: Chemotactic cell migration toward hepatocyte growth factor (HGF); type: cell-based; conditions: all three cell lines
Source text: One of the well-established functions of Eph receptors is the ligand-dependent repulsive guidance of cell migration. As a ligand-mimicking agonist for EphA2, doxazosin is expected to activate EphA2 on tumor cells and repulse migrating tumor cells in vitro. […] The inhibitory effects were observed when doxazosin was presented either in the bottom chamber, or in both top and bottom chambers in the Transwell assay system. […] Therefore, doxazosin can recapitulate a key function attributed to its native ligands, i.e., negative regulation of cell migration.

T2 sequence (P29317 24-976): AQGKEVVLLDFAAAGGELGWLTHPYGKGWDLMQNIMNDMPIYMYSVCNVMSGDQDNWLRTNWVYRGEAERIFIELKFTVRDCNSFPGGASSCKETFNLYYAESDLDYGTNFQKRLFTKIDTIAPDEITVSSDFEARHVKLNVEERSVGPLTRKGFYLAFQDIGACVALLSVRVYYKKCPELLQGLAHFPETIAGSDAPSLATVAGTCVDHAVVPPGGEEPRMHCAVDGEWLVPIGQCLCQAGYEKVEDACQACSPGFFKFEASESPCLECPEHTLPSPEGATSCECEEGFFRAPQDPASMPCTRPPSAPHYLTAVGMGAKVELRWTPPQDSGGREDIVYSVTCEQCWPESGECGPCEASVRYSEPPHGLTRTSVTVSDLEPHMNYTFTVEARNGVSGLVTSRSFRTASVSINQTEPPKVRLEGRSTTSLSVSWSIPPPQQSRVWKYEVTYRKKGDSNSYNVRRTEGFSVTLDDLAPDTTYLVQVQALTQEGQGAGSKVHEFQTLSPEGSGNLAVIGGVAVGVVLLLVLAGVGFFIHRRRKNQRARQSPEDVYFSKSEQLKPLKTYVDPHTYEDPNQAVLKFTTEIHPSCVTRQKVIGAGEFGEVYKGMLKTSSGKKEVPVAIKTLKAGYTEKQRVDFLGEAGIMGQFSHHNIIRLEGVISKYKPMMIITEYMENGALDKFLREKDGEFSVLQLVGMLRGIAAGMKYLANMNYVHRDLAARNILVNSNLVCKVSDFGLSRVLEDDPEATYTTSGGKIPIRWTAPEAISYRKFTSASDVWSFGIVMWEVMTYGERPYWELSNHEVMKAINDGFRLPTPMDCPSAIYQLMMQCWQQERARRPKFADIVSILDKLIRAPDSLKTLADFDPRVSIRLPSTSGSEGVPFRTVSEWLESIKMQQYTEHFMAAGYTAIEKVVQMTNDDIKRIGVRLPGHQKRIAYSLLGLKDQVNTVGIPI

With `COc1cc2nc(N3CCN(C(=O)C4COc5ccccc5O4)CC3)nc(N)c2cc1OC` (stereo not drawn) [Doxazosin, 2-[4-(2,3-Dihydro-1,4-benzodioxine-2-carbonyl)piperazin-1-yl]-6,7-dimethoxyquinazolin-4-amine] the “ERK and Akt inhibition after reintroduction of EphA2” value (ERK and Akt activities) was “restored ERK and Akt inhibition”, the cell rounding (PC-3 cells) was “caused rounding of PC-3 cells” and the “inhibition of Akt and ERK1/2 activation” value (ERK1/2 and Akt) was “significant inhibition of Akt and ERK1/2 activation”. For the same molecule, the subcutaneous xenograft growth [1] was “moderately decrease subcutaneous growth of DU145 and PC-3 cell xenografts”, the EphA1 activation (EphA1) was “no activation of EphA1” and the EphA2 internalization (EphA2 [2]) was “stimulated significant EphA2 internalization”. For the same molecule, the “concentration at which EphA2 activation starts” value (EphA2 [3]; A172-A2 cells, 90 minutes) was “around 25 μM”, the EphA2 degradation (EphA2 [3]; A172 cells) was “degradation of EphA2 following doxazosin treatment” and the “chemotactic cell migration toward HGF” value [4] was “dose-dependent inhibition”.
